Results reported in PubChem BioAssay (NCI).
Several values for one entry are separate records, joined by “and”; a condition that tells them apart may be missing. Identical values can stand only once.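 Growth conditions: 96-well plates. Treatment: test compound, 48 hours, 5 concentrations. Analysis: linear interpolation between bracketing concentrations; unreached endpoints set to highest concentration. At the GI50, growth is halved. Definition used: TGI = concentration required for complete inhibition of growth.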

How the values were obtained:
Assay in all cases: NCI anticancer screen, dose series, 48 h
TK-10 renal = tested on: TK-10 renal
SF-268 CNS = tested on: SF-268 CNS
CAKI-1 renal = tested on: CAKI-1 renal
OVCAR-3 ovarian = tested on: OVCAR-3 ovarian
SK-MEL-2 melanoma = tested on: SK-MEL-2 melanoma
SN12C renal = tested on: SN12C renal
A549 NSCLC = tested on: A549 NSCLC
OVCAR-8 ovarian = tested on: OVCAR-8 ovarian
DU-145 prostate = tested on: DU-145 prostate
BT-549 breast = tested on: BT-549 breast

## N#CC(C(=O)/C(=N\NC(N)=O)C(C#N)c1ccccc1)c1ccccc1 (centres undefined)
TK-10 renal
  TGI: > 100 µM
SF-268 CNS
  TGI: > 100 µM
CAKI-1 renal
  TGI: > 100 µM
OVCAR-3 ovarian
  TGI: > 100 µM
SK-MEL-2 melanoma
  TGI: > 100 µM
SN12C renal
  TGI: > 100 µM
A549 NSCLC
  TGI: > 100 µM
OVCAR-8 ovarian
  TGI: > 100 µM

## N/N=C(/Cc1nc2ccc(C(=O)c3ccccc3)cc2[nH]c1=O)C(=O)Nc1ccc([N+](=O)[O-])cc1[N+](=O)[O-]
TK-10 renal
  TGI: > 100 µM
SF-268 CNS
  GI50: > 100 µM
  TGI: > 100 µM
CAKI-1 renal
  TGI: > 100 µM
SK-MEL-2 melanoma
  GI50: > 100 µM
  TGI: > 100 µM
SN12C renal
  GI50: > 100 µM
  TGI: > 100 µM
A549 NSCLC
  GI50: > 100 µM
  TGI: > 100 µM
OVCAR-8 ovarian
  TGI: > 100 µM

## CCOC(=O)CC(NC(=O)c1[nH]cnc1/N=N/N(C)C)C(=O)OCC (centres undefined)
TK-10 renal
  TGI: > 100 µM
SF-268 CNS
  TGI: > 100 µM
CAKI-1 renal
  TGI: > 100 µM
OVCAR-3 ovarian
  TGI: > 100 µM
SK-MEL-2 melanoma
  TGI: > 100 µM
SN12C renal
  TGI: > 100 µM
A549 NSCLC
  TGI: > 100 µM
OVCAR-8 ovarian
  TGI: > 100 µM

## CC(=O)[CH-]C(=O)c1ccccc1.CC(=O)[CH-]C(=O)c1ccccc1.O=S(=O)([O-])c1cc([O-])c2c([O-])cc(S(=O)(=O)[O-])cc2c1.[Na+].[Zr+4]
SF-268 CNS
  GI50: > 100 µM
  TGI: > 100 µM
CAKI-1 renal
  GI50: 60 µM
  TGI: > 100 µM
OVCAR-3 ovarian
  GI50: > 100 µM
  TGI: > 100 µM
SK-MEL-2 melanoma
  GI50: > 100 µM
  TGI: > 100 µM
SN12C renal
  GI50: 97.3 µM
  TGI: > 100 µM
A549 NSCLC
  GI50: > 100 µM
  TGI: > 100 µM
OVCAR-8 ovarian
  GI50: > 100 µM
  TGI: > 100 µM

## CCNC(=O)OCc1c(COC(=O)NCC)c(-c2ccc(Cl)c(Cl)c2)n2c1CCC2
TK-10 renal
  TGI: 54.5 µM
SF-268 CNS
  TGI: 32.8 µM
CAKI-1 renal
  TGI: 14.6 µM
OVCAR-3 ovarian
  TGI: 45.8 µM
SK-MEL-2 melanoma
  TGI: 28.1 µM
A549 NSCLC
  TGI: 82.3 µM
OVCAR-8 ovarian
  TGI: 41.7 µM

## O=C(Nc1ccc(Cl)cc1Cl)OC(Cn1cncn1)c1ccc(Cl)cc1Cl (centres undefined)
SF-268 CNS
  TGI: 31.9 µM
OVCAR-3 ovarian
  TGI: 29.3 µM
SK-MEL-2 melanoma
  TGI: 33.7 µM
SN12C renal
  TGI: 30.7 µM
A549 NSCLC
  TGI: 33 µM
OVCAR-8 ovarian
  TGI: 31.8 µM

## COC(=O)C1=CC2C=CC(C1C(=O)OC)C1C(C(=O)OC)=C(C(=O)OC)C(C(=O)OC)=C(C(=O)OC)C21OC (centres undefined)
TK-10 renal
  TGI: > 100 µM
SF-268 CNS
  TGI: > 100 µM
CAKI-1 renal
  TGI: > 100 µM
OVCAR-3 ovarian
  TGI: > 100 µM
SK-MEL-2 melanoma
  TGI: > 100 µM
SN12C renal
  TGI: > 100 µM
A549 NSCLC
  TGI: > 100 µM
OVCAR-8 ovarian
  TGI: > 100 µM

## COc1cc(OC)cc(-c2cc(=O)c3cc4c(cc3[nH]2)OCO4)c1
TK-10 renal
  TGI: 55 µM
SF-268 CNS
  TGI: 38.6 µM
CAKI-1 renal
  TGI: > 100 µM
OVCAR-3 ovarian
  TGI: 5.82 µM
SK-MEL-2 melanoma
  TGI: 4.46 µM
SN12C renal
  TGI: 30 µM
A549 NSCLC
  TGI: 45.1 µM
OVCAR-8 ovarian
  TGI: 9.55 µM

## O=C(/C=C/c1cccc([N+](=O)[O-])c1)c1ccc([N+](=O)[O-])cc1
TK-10 renal
  TGI: > 100 µM
SF-268 CNS
  TGI: > 100 µM
CAKI-1 renal
  TGI: > 100 µM
OVCAR-3 ovarian
  TGI: > 100 µM
SK-MEL-2 melanoma
  TGI: > 100 µM
SN12C renal
  TGI: > 100 µM
A549 NSCLC
  TGI: > 100 µM
OVCAR-8 ovarian
  TGI: > 100 µM

## COc1cccc(C2SC(N)=Nc3c2c(C)nn3C(=O)Cc2ccccc2)c1 (centres undefined)
TK-10 renal
  TGI: > 100 µM
SF-268 CNS
  TGI: > 100 µM
CAKI-1 renal
  TGI: > 100 µM
DU-145 prostate
  TGI: > 100 µM
BT-549 breast
  TGI: > 100 µM
SN12C renal
  TGI: > 100 µM
A549 NSCLC
  TGI: > 100 µM
OVCAR-8 ovarian
  TGI: > 100 µM

## O=C1c2ccccc2C2CCC1c1ccccc12 (centres undefined)
TK-10 renal
  TGI: 93.9 µM
SF-268 CNS
  TGI: > 100 µM
CAKI-1 renal
  TGI: > 100 µM
OVCAR-3 ovarian
  TGI: > 100 µM
SK-MEL-2 melanoma
  TGI: 94 µM
SN12C renal
  TGI: > 100 µM
A549 NSCLC
  TGI: > 100 µM
OVCAR-8 ovarian
  TGI: > 100 µM

## CN(/N=C/c1ccnc2ccccc12)c1c([N+](=O)[O-])cc([N+](=O)[O-])cc1[N+](=O)[O-]
TK-10 renal
  TGI: > 100 µM
SF-268 CNS
  TGI: > 100 µM
CAKI-1 renal
  TGI: > 100 µM
OVCAR-3 ovarian
  TGI: > 100 µM
SK-MEL-2 melanoma
  TGI: 89.1 µM
SN12C renal
  TGI: > 100 µM
A549 NSCLC
  TGI: > 100 µM
OVCAR-8 ovarian
  TGI: > 100 µM

## CNS(=O)(=O)NNS(=O)(=O)c1ccc(OC)cc1
SF-268 CNS
  TGI: > 100 µM
CAKI-1 renal
  TGI: > 100 µM
OVCAR-3 ovarian
  TGI: > 100 µM
SK-MEL-2 melanoma
  TGI: > 100 µM
A549 NSCLC
  TGI: > 100 µM
OVCAR-8 ovarian
  TGI: > 100 µM

## CC1C2C=C(O)C(=O)C(C2=O)C1c1ccccc1 (centres undefined)
TK-10 renal
  TGI: > 100 µM
SF-268 CNS
  TGI: > 100 µM
CAKI-1 renal
  TGI: > 100 µM
OVCAR-3 ovarian
  TGI: > 100 µM
SK-MEL-2 melanoma
  TGI: > 100 µM
A549 NSCLC
  TGI: > 100 µM
OVCAR-8 ovarian
  TGI: > 100 µM

## Cn1c2c(c3ccccc31)CCN1C(=O)CCC21 (centres undefined)
TK-10 renal
  TGI: > 10 µM
SF-268 CNS
  TGI: > 10 µM
CAKI-1 renal
  TGI: > 10 µM
OVCAR-3 ovarian
  TGI: > 10 µM
DU-145 prostate
  TGI: > 10 µM
SK-MEL-2 melanoma
  TGI: > 10 µM
SN12C renal
  TGI: > 10 µM
OVCAR-8 ovarian
  TGI: > 10 µM

## COc1c(-c2ccccc2)nc2ccc(Oc3ccccc3)nn12
TK-10 renal
  TGI: > 100 µM
SF-268 CNS
  TGI: > 100 µM
CAKI-1 renal
  TGI: > 100 µM
OVCAR-3 ovarian
  TGI: > 100 µM
SK-MEL-2 melanoma
  TGI: > 94.4 µM
SN12C renal
  TGI: > 100 µM
A549 NSCLC
  TGI: > 100 µM
OVCAR-8 ovarian
  TGI: > 100 µM

## CC(=O)c1cc(C(=O)c2ccc3c(c2)Sc2ccccc2N3)n2ccccc12
SF-268 CNS
  TGI: > 33.2 µM
CAKI-1 renal
  GI50: 0.00368 µM and 0.00369 µM
  TGI: > 33.2 µM
OVCAR-3 ovarian
  GI50: 0.00365 µM
DU-145 prostate
  GI50: 0.00514 µM and 0.00332 µM
  TGI: > 33.2 µM
BT-549 breast
  GI50: 0.00773 µM and 0.0262 µM
  TGI: > 33.2 µM
SK-MEL-2 melanoma
  GI50: 0.00477 µM
SN12C renal
  TGI: > 33.2 µM
A549 NSCLC
  GI50: 0.00613 µM and 0.00332 µM
  TGI: > 33.2 µM
OVCAR-8 ovarian
  GI50: 0.00752 µM and 0.00332 µM
  TGI: > 33.2 µM

## Cn1cc2ccccc2c1-c1nc(F)nc(Oc2ccc3c(c2)CC[C@@H]2C3CC[C@@]3(C)C2C[C@H](O)[C@@H]3O)n1 (some centres undefined)
TK-10 renal
  TGI: 54.6 µM
SF-268 CNS
  TGI: 36.8 µM
CAKI-1 renal
  TGI: 34.8 µM
OVCAR-3 ovarian
  TGI: 78.8 µM
SK-MEL-2 melanoma
  TGI: 38.1 µM
SN12C renal
  TGI: 31.6 µM
A549 NSCLC
  TGI: 34.1 µM
OVCAR-8 ovarian
  TGI: 34.1 µM

## COC(=O)C1C(=O)O[C@@H](c2cc(OC)c(OC)cc2OC)C1C(=O)OC (mixture of isomers)
TK-10 renal
  TGI: > 100 µM
SF-268 CNS
  TGI: > 100 µM
CAKI-1 renal
  TGI: > 100 µM
OVCAR-3 ovarian
  TGI: > 100 µM
SN12C renal
  TGI: > 100 µM
A549 NSCLC
  TGI: > 100 µM
OVCAR-8 ovarian
  TGI: > 100 µM

## O=c1c(Cl)c(Cl)cnn1CCCl
TK-10 renal
  TGI: 30.3 µM
SF-268 CNS
  TGI: 14.1 µM
CAKI-1 renal
  TGI: 6.53 µM
OVCAR-3 ovarian
  TGI: 11.9 µM
DU-145 prostate
  TGI: 34 µM
BT-549 breast
  TGI: 13.9 µM
SN12C renal
  TGI: 25.5 µM
A549 NSCLC
  TGI: 35.3 µM
OVCAR-8 ovarian
  TGI: 10.9 µM

## O=C(c1ccc(Cl)cc1)c1ccc(OCCCOc2ccc(C(=O)c3ccc(Cl)cc3)cc2Cl)c(Cl)c1
TK-10 renal
  TGI: > 100 µM
CAKI-1 renal
  TGI: > 100 µM
OVCAR-3 ovarian
  TGI: > 100 µM
SK-MEL-2 melanoma
  TGI: > 100 µM
SN12C renal
  TGI: > 100 µM
A549 NSCLC
  TGI: > 100 µM
OVCAR-8 ovarian
  TGI: > 100 µM

## O=C1C2C3CC(C4C5C=CC(C5)C34)C2C2C3CC(C12)C1C2C=CC(C2)C31 (centres undefined)
TK-10 renal
  TGI: > 100 µM
SF-268 CNS
  TGI: > 100 µM
CAKI-1 renal
  TGI: > 100 µM
OVCAR-3 ovarian
  TGI: > 100 µM
SK-MEL-2 melanoma
  TGI: > 100 µM
SN12C renal
  TGI: > 100 µM
A549 NSCLC
  TGI: > 100 µM
OVCAR-8 ovarian
  TGI: > 100 µM
